# Data taken from patent US8524730B2, “Spirochromanone carboxylic acids” (MSD K.K., priority 2008, dated 2013).
# Legend:
# human ACC1 = human ACC1 (Homo sapiens, UniProt Q13085); test: Acetyl CoA carboxylase (ACC) activity inhibition test, human ACC1; assay type: biochemical; conditions: 1 μmol/liter compound; read-out: Inhibition (%) by 1 μmol/liter Chemical, human ACC1
# Experimental: (§1) A. Pharmacological Test Example (Acetyl CoA Carboxylase (ACC) Activity Inhibition Test)
# (§2) A test compound is dissolved in dimethyl sulfoxide (DMSO) to a concentration of 10 mM and then diluted with DMSO to give a 100-fold concentrated solution of the compound compared with target assay concentration. The ACC enzyme activity inhibition test is carried out according to a modification of Thampy & Wakil's method (J. Biol. Chem., Vol. 260, pp. 6318-6323 (1985)). Concretely, 0.8 μl of the diluted test compound is added to each well of 96-well assay plate (Perkin Elmer Opti Plate), then 40 μl of a substrate solution (50 mM Hepes sodium (pH 7.5), 2 mM DTT, 10 mM ATP, 500 μM acetyl CoA, 0.17 mM NaH[^14C]O3 (58 mCi/mmol by Amersham), 8 mM NaHCO3) is added to each well, and 40 μL of an enzyme solution (1 to 2 nM human ACC1 or human ACC2, 50 mM Hepes sodium (pH 7.5), 2 mM DTT, 40 mM MgCl2, 40 mM tripotassium citrate 1 mg/ml fetal bovine serum albumin) is added thereto. Then, the upper side of the plate is sealed up, and the plate is incubated with gently stirring at 37° C. for 40 minutes. Next, 20 μl of 1 N HCl is added to each well to stop the enzyme reaction, and the assay plate is stirred overnight to remove the unreacted NaH[^14C]O3. Next, 100 μl of a scintillator (Perkin Elmer's Microscinti 40) is added to each well and the plate is stirred, then the radioactivity of the fixed [^14C] is counted using a microplate scintillation counter (Perkin Elmer's Topcount), the radioactivity of which represents the enzyme activity in each well. The human ACC1 and human ACC2 enzyme-inhibition activities of the test compounds are calculated, based on the radioactivity of the well added by DMSO without test compound as a control.
# human ACC2 = human ACC2 (Homo sapiens, UniProt O00763); test: Acetyl CoA carboxylase (ACC) activity inhibition test, human ACC2; assay type: biochemical; conditions: 1 μmol/liter compound; read-out: Inhibition (%) by 1 μmol/liter Chemical, human ACC2
# Sequence of human ACC2 (O00763 whole entry): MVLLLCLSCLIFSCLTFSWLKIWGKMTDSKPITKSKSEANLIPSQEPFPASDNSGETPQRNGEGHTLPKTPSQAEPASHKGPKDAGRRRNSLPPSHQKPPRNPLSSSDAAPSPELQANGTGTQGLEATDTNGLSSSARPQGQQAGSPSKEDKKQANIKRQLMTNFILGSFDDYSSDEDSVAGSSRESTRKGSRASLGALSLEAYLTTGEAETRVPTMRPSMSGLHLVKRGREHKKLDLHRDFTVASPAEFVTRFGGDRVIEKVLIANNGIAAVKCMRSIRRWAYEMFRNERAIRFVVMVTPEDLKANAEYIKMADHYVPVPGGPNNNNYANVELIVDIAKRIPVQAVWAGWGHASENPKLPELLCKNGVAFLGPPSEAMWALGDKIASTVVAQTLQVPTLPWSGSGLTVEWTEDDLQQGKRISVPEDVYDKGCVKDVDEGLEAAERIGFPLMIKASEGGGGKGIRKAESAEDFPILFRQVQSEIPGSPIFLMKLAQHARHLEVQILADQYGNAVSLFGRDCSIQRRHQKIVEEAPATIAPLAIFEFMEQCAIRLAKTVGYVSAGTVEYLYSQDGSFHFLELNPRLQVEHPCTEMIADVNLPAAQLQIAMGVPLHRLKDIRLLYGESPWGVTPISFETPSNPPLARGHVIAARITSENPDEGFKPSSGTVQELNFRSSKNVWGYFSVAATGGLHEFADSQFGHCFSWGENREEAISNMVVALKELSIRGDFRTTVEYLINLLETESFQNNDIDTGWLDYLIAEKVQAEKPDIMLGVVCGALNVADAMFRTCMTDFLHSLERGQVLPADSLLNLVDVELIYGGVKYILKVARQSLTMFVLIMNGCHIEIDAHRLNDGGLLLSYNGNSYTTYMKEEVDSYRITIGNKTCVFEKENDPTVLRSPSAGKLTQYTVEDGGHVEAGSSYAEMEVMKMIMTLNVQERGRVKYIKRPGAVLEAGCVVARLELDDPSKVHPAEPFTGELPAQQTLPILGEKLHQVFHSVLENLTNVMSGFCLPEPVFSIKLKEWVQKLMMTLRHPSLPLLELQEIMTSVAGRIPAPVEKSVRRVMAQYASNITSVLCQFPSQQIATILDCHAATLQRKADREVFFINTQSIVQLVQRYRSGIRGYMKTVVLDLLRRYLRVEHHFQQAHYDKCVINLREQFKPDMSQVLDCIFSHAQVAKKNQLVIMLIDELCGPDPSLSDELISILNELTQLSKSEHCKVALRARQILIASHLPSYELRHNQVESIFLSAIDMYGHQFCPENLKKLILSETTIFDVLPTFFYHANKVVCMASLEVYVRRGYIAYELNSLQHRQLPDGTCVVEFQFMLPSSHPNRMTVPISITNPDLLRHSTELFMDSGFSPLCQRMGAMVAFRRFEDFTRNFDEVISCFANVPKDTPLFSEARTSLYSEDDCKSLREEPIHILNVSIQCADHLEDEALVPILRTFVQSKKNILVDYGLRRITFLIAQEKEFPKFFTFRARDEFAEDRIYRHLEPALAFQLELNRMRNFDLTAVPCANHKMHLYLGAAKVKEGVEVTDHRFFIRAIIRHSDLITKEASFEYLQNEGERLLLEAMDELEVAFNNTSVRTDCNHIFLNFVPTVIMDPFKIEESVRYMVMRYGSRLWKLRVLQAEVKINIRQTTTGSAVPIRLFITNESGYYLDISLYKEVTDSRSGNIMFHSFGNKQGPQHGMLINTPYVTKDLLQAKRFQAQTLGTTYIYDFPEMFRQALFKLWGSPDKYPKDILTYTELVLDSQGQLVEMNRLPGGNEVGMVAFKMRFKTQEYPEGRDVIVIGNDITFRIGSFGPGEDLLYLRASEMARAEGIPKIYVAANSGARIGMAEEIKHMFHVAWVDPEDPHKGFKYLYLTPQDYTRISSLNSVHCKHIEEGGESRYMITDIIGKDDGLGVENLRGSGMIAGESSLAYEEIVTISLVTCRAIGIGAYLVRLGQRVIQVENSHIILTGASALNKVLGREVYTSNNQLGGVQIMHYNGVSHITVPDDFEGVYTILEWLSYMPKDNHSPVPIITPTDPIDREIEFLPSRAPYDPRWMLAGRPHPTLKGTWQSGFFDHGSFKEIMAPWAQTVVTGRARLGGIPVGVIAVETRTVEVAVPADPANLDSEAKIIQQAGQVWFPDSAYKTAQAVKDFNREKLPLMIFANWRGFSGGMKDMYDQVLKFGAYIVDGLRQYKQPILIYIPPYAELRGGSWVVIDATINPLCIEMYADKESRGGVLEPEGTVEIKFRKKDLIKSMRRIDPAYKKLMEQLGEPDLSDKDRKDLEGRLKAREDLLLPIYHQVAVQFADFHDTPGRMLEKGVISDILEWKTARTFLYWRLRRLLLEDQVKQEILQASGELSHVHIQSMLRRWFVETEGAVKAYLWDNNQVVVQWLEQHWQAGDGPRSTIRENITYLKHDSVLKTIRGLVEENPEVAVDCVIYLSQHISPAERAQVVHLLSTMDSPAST
# Experimental: as §1, §2
SMILES,inhibition at 1 µM (human ACC1),inhibition at 1 µM (human ACC2)
"CCOc1cc(C(=O)N2CCC3(CC2)CC(=O)c2cc(-c4cnn(C)c4)ccc2O3)cc(OCC)c1-c1cncc(C(=O)O)c1 [Example 21, 5-(2,6-Diethoxy-4-{[6-(1-methyl-1H-pyrazol-4-yl)-4-oxospiro[chroman-2,4′-piperidin]-1′-yl]carbonyl}phenyl)nicotinic acid]",100%,100%
"CCOc1cc(C(=O)N2CCC3(CC2)CC(=O)c2cc(-c4ccc(C(N)=O)cc4)ccc2O3)cc(OCC)c1-c1ccc(C(=O)O)cc1 [Example 3, 4′-({6-(4-Carbamoylphenyl)-4-oxospiro[chroman-2,4′-piperidin]-1′-yl}carbonyl)-2′,6′-diethoxybiphenyl-4-carboxylic acid]",100%,99%
CCOc1cc(C(=O)N2CCC3(CC2)CC(=O)c2cc(-c4ccc(C(N)=O)cn4)ccc2O3)cc(OCC)c1-c1ccc(C(=O)O)cc1 [Example 5],98%,99%
"CCOc1cc(C(=O)N2CCC3(CC2)CC(=O)c2cc(-c4cnn(C)c4)ccc2O3)cc(OCC)c1-c1cccc(C(=O)O)c1 [Example 20, Sodium 2′,6′-diethoxy-4′-{[6-(1-methyl-1H-pyrazol-4-yl)-4-oxospiro[chroman-2,4′-piperidin]-1′-yl]carbonyl}biphenyl-3-carboxylate]",100%,99%

# Other lines, results leading:
inhibition at 1 µM (human ACC1),inhibition at 1 µM (human ACC2),SMILES
99%,99%,"Cc1nn(-c2ccc(C(=O)O)cc2)c2ccc(C(=O)N3CCC4(CC3)CC(=O)c3cc(-c5cnn(C)c5)ccc3O4)cc12 [Example 13, 4-(3-Methyl-5-{[6-(1-methyl-1H-pyrazol-4-yl)-4-oxospiro[chroman-2,4′-piperidin]-1′-yl]carbonyl}-1H-indazol-1-yl)benzoic acid]"
99%,100%,"CCOc1cc(C(=O)N2CCC3(CC2)CC(=O)c2cc(-c4cnn(C)c4)ccc2O3)cc(OCC)c1-c1ccc(C(=O)O)cc1 [Example 18, Sodium 2′,6′-diethoxy-4′-{[6-(1-methyl-1H-pyrazol-4-yl)-4-oxospiro[chroman-2,4′piperidin]-1′-yl]carbonyl}biphenyl-4-carboxylate]"
